Test results published in patent publication US9987280B2, “SIRT1 inhibitors and stem cell rejuvenation” (City of Hope, priority 2013, dated 2018).

Columns and labels:
Ku70 = experiment: Immunoprecipitation of LSD1 or SIRT1 in KCL-22 cells to detect interaction with Ku70; format: cell-based
Protocol: IP of LSD1 or SIRT1 was carried out in KCL-22 cells to detect their interaction with Ku70, respectively. […] (B) Without and with treatment of 1 mM H2O2 for 1 h and 0.25 μM camptothecin (CPT) for 12 h. Flag was used for IP control.
To explore the mechanisms, Applicants used immunoprecipitation (IP) assay to examine SIRT1, LSD1 and Ku70 interaction.

KCL-22 CML cells = KCL-22 CML cells upon imatinib treatment; cited from earlier work
Burkitt lymphoma = conditions: single agent; cited from earlier work
[1] = 2.5 μM imatinib (STI) for 24 and 48 h

## OO [hydrogen peroxide]
Ku70; 1 mM H2O2 for 1 h
  LSD1/SIRT1 interaction with Ku70: switch of LSD1/SIRT1 interaction with Ku70

## Cc1ccc(NC(=O)c2ccc(CN3CCN(C)CC3)cc2)cc1Nc1nccc(-c2cccnc2)n1 [imatinib]
Ku70; [1]
  LSD1 interaction with Ku70: reduced
  SIRT1 interaction with Ku70: rapidly enhanced
Ku70; 48 h drug treatment
  total SIRT1 level: partially reduced
KCL-22 CML cells
  acquisition of T315I BCR-ABL kinase domain mutation: rapidly acquire T315I BCR-ABL kinase domain mutation

## CC[C@@]1(O)C(=O)OCc2c1cc1n(c2=O)Cc2cc3ccccc3nc2-1 [camptothecin]
Ku70; 0.25 μM camptothecin (CPT) for 12 h
  LSD1/SIRT1 interaction with Ku70: switch of LSD1/SIRT1 interaction with Ku70

## O=c1[nH]c(S)nc(-c2ccccc2)c1Cc1c(O)ccc2ccccc12 [cambinol, 5-[(2-hydroxy-1-naphthyl)methyl]-2-mercapto-6-phenyl-4(3H)-pyrimidinone]
Burkitt lymphoma
  sensitivity of Burkitt lymphoma: sensitive
